Patent US4837149A, “Novel saframycin A derivatives and process for producing the same” (priority 1984, dated 1989)
In brackets after ≈: the same amount, converted by molar mass. Read-outs that look alike come from different tables or passages of the source.

Experiments:
[1] = test system: Staphylococcus aureus 209 P; test: Antibacterial spectra in vitro, MIC on agar plates; type: cell-based; details: IFM No. 2014, nutrient agar, 37° C., 24 hours
[2] = test system: Staphylococcus aureus Smith; test: Antibacterial spectra in vitro, MIC on agar plates; type: cell-based; details: IFM No. 2018, nutrient agar, 37° C., 24 hours
[3] = test system: Staphylococcus albus; test: Antibacterial spectra in vitro, MIC on agar plates; type: cell-based; details: IFM No. 2013, nutrient agar, 37° C., 24 hours
[4] = test system: Staphylococcus citreus; test: Antibacterial spectra in vitro, MIC on agar plates; type: cell-based; details: IFM No. 2025, nutrient agar, 37° C., 24 hours
[5] = test system: Sarcina lutea; test: Antibacterial spectra in vitro, MIC on agar plates; type: cell-based; details: Micrococcus luteus; IFM No. 2066; nutrient agar; 37° C., 24 hours
[6] = test system: Bacillus subtilis PCI 219; test: Antibacterial spectra in vitro, MIC on agar plates; type: cell-based; details: PCI219, IFM No. 2060, nutrient agar, 37° C., 24 hours
[7] = test system: Bacillus cereus; test: Antibacterial spectra in vitro, MIC on agar plates; type: cell-based; details: IFM No. 2058, nutrient agar, 37° C., 24 hours
[8] = test system: Escherichia coli F1; test: Antibacterial spectra in vitro, MIC on agar plates; type: cell-based; details: IFM No. 3002, nutrient agar, 37° C., 24 hours
[9] = test system: Salmonella typhimurium; test: Antibacterial spectra in vitro, MIC on agar plates; type: cell-based; details: Salmonella enterica, IFM No. 3023, nutrient agar, 37° C., 24 hours
[10] = test system: Shigella dysenteria; test: Antibacterial spectra in vitro, MIC on agar plates; type: cell-based; details: IFM No. 3024, nutrient agar, 37° C., 24 hours
[11] = test system: Klebsiella pneumoniae; test: Antibacterial spectra in vitro, MIC on agar plates; type: cell-based; details: IFM No. 3008, nutrient agar, 37° C., 24 hours
[12] = test system: Serratia marcescens; test: Antibacterial spectra in vitro, MIC on agar plates; type: cell-based; details: IFM No. 3029, nutrient agar, 37° C., 24 hours
[13] = test system: Corynebacterium diphtheria; test: Antibacterial spectra in vitro, MIC on agar plates; type: cell-based; details: IFM No. 2056, glucose (0.5%) agar, 37° C., 24 hours
Method: (§1) With respect to the antimicrobial activities of saframycins Y3 and Yd-1, the antibacterial spectra in vitro, as expressed by their minimum inhibitory concentrations (MIC), are shown in Table 2:
(§2) Medium: A=nutrient agar, B=glucose (0.5%) agar, C=Sabouraud's glucose (2%) agar.
(§3) All MIC-values shown in Table 2 are obtained from cultures on agar plates containing varying amounts of the antibiotic tested at temperatures of 37° C. after an incubation period of 24 hours (bacteria), 48 hours (fungi except candida albicans, 37° C., 48 hours, Trichophyton mentagrophytes.

[14] = test system: Mycobacterium sp. 607; test: Antibacterial spectra in vitro, MIC on agar plates; type: cell-based; details: IFM No. 2051, glucose (0.5%) agar, 37° C., 24 hours
Method: as §1, §2, §3

[15] = test system: Pseudomonas aeruginosa; test: Antibacterial spectra in vitro, MIC on agar plates; type: cell-based; details: IFM No. 3011, nutrient agar, 37° C., 24 hours
Method: as §1, §2, §3

[16] = test system: Streptococcus pyogenes Cook; test: Antibacterial spectra in vitro, MIC on agar plates; type: cell-based; details: IFM No. 2003, glucose (0.5%) agar, 37° C., 24 hours
Method: as §1, §2, §3

[17] = test system: Streptococcus faecalis; test: Antibacterial spectra in vitro, MIC on agar plates; type: cell-based; details: Enterococcus faecalis; IFM No. 2001; glucose (0.5%) agar; 37° C., 24 hours
[18] = test system: Streptococcus pyogenes 090 R; test: Antibacterial spectra in vitro, MIC on agar plates; type: cell-based
[19] = test system: Streptococcus salivarius; test: Antibacterial spectra in vitro, MIC on agar plates; type: cell-based; details: IFM No. 2010, glucose (0.5%) agar, 37° C., 24 hours
[20] = test system: Corynebacterium xeriosis; test: Antibacterial spectra in vitro, MIC on agar plates; type: cell-based; details: IFM No. 2057, glucose (0.5%) agar, 37° C., 24 hours
[21] = test system: Mycobacterium phlei; test: Antibacterial spectra in vitro, MIC on agar plates; type: cell-based; details: Mycolicibacterium phlei; IFM No. 2052; glucose (0.5%) agar; 37° C., 24 hours
[22] = test system: Mycobacterium avium; test: Antibacterial spectra in vitro, MIC on agar plates; type: cell-based; details: IFM No. 2054, glucose (0.5%) agar, 37° C., 24 hours
[23] = test system: Nocardia asteroides; test: Antibacterial spectra in vitro, MIC on agar plates; type: cell-based; details: IFM No. 0006, glucose (0.5%) agar, 37° C., 24 hours
[24] = test system: Brucella abortus; test: microbe, parasite or virus in culture; type: cell-based; details: 24 h
[25] = test system: Candida albicans 7N; test: Antimicrobial (fungi) MIC on agar plates; type: cell-based; details: IFM No. 40009, Sabouraud's glucose (2%) agar
[26] = test system: Saccharomyces cerevisiae; test: Antimicrobial (fungi) MIC on agar plates; type: cell-based; details: IFM No. 40025, Sabouraud's glucose (2%) agar, 48 hours
[27] = test system: Rhodotorula glutinus; test: Antimicrobial (fungi) MIC on agar plates; type: cell-based; details: IFM No. 40057, Sabouraud's glucose (2%) agar, 48 hours
[28] = test system: Aspergillus niger; test: Antimicrobial (fungi) MIC on agar plates; type: cell-based; details: IFM No. 40606, Sabouraud's glucose (2%) agar, 48 hours
[29] = test system: Aspergillus oryzae; test: Antimicrobial (fungi) MIC on agar plates; type: cell-based; details: IFM No. 40601, Sabouraud's glucose (2%) agar, 48 hours
[30] = test system: Penicillium expansum; test: Antimicrobial (fungi) MIC on agar plates; type: cell-based; details: IFM No. 40618, Sabouraud's glucose (2%) agar, 48 hours
[31] = test system: Trichophyton mentagrophytes; test: Antimicrobial (fungi) MIC on agar plates; type: cell-based; details: IFM No. 40134, Sabouraud's glucose (2%) agar
[32] = test system: mouse leukaemia L 1210; test: Cytotoxic effect in cell cultures of mouse leukaemia L 1210; type: cell-based; details: L1210, read-out: ED50 (cytotoxic effect)
[33] = test system: Ehrlich ascitic tumor cells; test: Survival of ICR mice inoculated with Ehrlich ascitic tumor cells; type: in vivo; details: for mice survived: 20 micrograms/mouse/day intraperitoneally for 7 days, from 24 hours after inoculation, 10 mice per group
Method: In another test, ICR mice (10 mice per group) were inoculated with Ehrlich ascitic tumor cells. Twenty-four hours after the inoculation the dose of 20 micrograms/mouse/day of saframycin Y3 or 20 micrograms/mouse/day of saframycin Yd-1 was administered intraperitoneally. The administration was continued for 7 days. […] When 5 micrograms/mouse/day of saframycin Y3 or 4 micrograms/mouse/day of Yd-1 were administered, 60-70% of the mice survived for 20 days or more.

[34] = test system: mouse leukemia L 1210; test: Effect against mouse leukemia L 1210 in BDF1 mice (US National Cancer Research Institute procedure); type: in vivo; details: for survival effect compared with critical level of effectiveness prescribed by the research institute: 10 micrograms/mouse/day intraperitoneally for one week; for survival effect [T/C×100]: 10 micrograms/mouse/day intraperitoneally for one week from 24 hours after transplantation
Description: In another test, the effect of saframycins Y3 and Yd-1 against mouse leukemia L 1210 was examined by using BDF1 mice according to the procedure as established by the US National Cancer Research Institute.

[35] = test system: Lewis lung cancer; test: Effect against metastasis of Lewis lung cancer (foot pad inoculation, leg amputation); type: in vivo, BDF1 mice; details: 40 micrograms/mouse/day for 10 days i.p.; seven days after last administration; control: abundant metastasis
Method: In another test, the effect of saframycin Yd-1 against metastasis of Lewis lung cancer was determined in the following manner:
The foot pads of the left hind legs of BDF1 mice having a body weight of 20 g were subcutaneously inoculated with 1.5×10^5 Lewis lung cancer cells. After seven days the legs were amputated.
(§4) A physiological sodium chloride solution was administered intraperitoneally to the control group while saframycin Yd-1 was given at a dose of 40 micrograms/mouse/day for 10 days i.p. to the group to be treated. Seven days after the last administration, the mice were sacrificed and the spread of metastasis in the lungs was compared. […] In anther experiment, the effect against Lewis lung cancer was evaluated according to the guidelines of the USA Cancer Institute (R. L. Geran et al. Cancer Chemotherapy Reports, Part 3, Vol. 3, No. 2 (1972)).

[36] = test system: Lewis lung cancer; test: Effect against Lewis lung cancer according to guidelines of the USA Cancer Institute; type: in vivo; details: 20 micrograms/mouse/day intraperitoneally for 10 days
Method: as §4

CCC(N)C(=O)NCC1C2=C(CC3C4C5=C(CC(C(C#N)N13)N4C)C(=O)C(C)=C(OC)C5=O)C(=O)C(C)=C(OC)C2=O (stereo not drawn) [Saframycin Yd-1] showed an MIC [1] of 1 µg/mL (≈ 1.73 µM), an MIC [2] of 1 µg/mL (≈ 1.73 µM) and an MIC [3] of 10 µg/mL (≈ 17.3 µM). The MIC [4] was 0.1 µg/mL (≈ 0.173 µM), the MIC [5] was 1 µg/mL (≈ 1.73 µM) and the MIC [6] was 1 µg/mL (≈ 1.73 µM). The MIC [7] was 50 µg/mL (≈ 86.6 µM), the MIC [8] was 50 µg/mL (≈ 86.6 µM) and the MIC [9] was 50 µg/mL (≈ 86.6 µM). For the same compound, the MIC [10] was 10 µg/mL (≈ 17.3 µM), the MIC [11] was 10 µg/mL (≈ 17.3 µM) and the MIC [12] was 50 µg/mL (≈ 86.6 µM). For the same compound, the MIC [13] was < 0.001 µg/mL, the MIC [14] was > 100 µg/mL and the MIC [15] was > 100 µg/mL. The MIC [16] was < 0.001 µg/mL, the MIC [17] was 10 µg/mL (≈ 17.3 µM) and the MIC ([18]; 24 h) was 0.01 µg/mL (≈ 0.0173 µM). For the same compound, the MIC [19] was 50 µg/mL (≈ 86.6 µM), the MIC [20] was 1 µg/mL (≈ 1.73 µM) and the MIC [21] was 50 µg/mL (≈ 86.6 µM). The MIC [22] was 50 µg/mL (≈ 86.6 µM), the MIC [23] was 1 µg/mL (≈ 1.73 µM) and the MIC [24] was 1 µg/mL (≈ 1.73 µM). The MIC [25] was > 100 µg/mL, the MIC [26] was > 100 µg/mL and the MIC [27] was > 100 µg/mL. For the same compound, the MIC [28] was > 100 µg/mL, the MIC [29] was > 100 µg/mL and the MIC [30] was > 100 µg/mL. The MIC [31] was > 100 µg/mL, the IC50 [32] was 0.002 µg/mL (≈ 0.00346 µM) and the “mice survived for 20 days or more” value ([33]; 4 micrograms/mouse/day) was 60-70%. For the same compound, the mice survived [33] was “all mice survived”, the “survival effect compared with critical level of effectiveness prescribed by the research institute” value [34] was “exceed the critical level of effectiveness” and the “survival effect [T/C×100]” value [34] was 140%. The “spread of metastasis in the lungs” value [35] was “metastasis was scarcely observed”, the “T/C×100” value [36] was ≥ 140% and the “preventing effect against cancer metastasis as compared to saframycin A” value [36] was “higher preventing effect”.

Work on COC1=C(C)C(=O)C2=C(C1=O)C1C3CC4=C(C(=O)C(OC)=C(C)C4=O)C(CNC(=O)C(C)N)N3C(C#N)C(C2)N1C (stereo not drawn) [Saframycin Y3] yielded an MIC [1] of 1 µg/mL (≈ 1.77 µM), an MIC [2] of 0.1 µg/mL (≈ 0.177 µM) and an MIC [3] of 1 µg/mL (≈ 1.77 µM). It also gave an MIC [4] of 0.1 µg/mL (≈ 0.177 µM), an MIC [5] of 1 µg/mL (≈ 1.77 µM) and an MIC [6] of 10 µg/mL (≈ 17.7 µM). For the same compound, the MIC [7] was 50 µg/mL (≈ 88.7 µM), the MIC [8] was 50 µg/mL (≈ 88.7 µM) and the MIC [9] was 50 µg/mL (≈ 88.7 µM). It also gave an MIC [10] of 10 µg/mL (≈ 17.7 µM), an MIC [11] of 10 µg/mL (≈ 17.7 µM) and an MIC [12] of 50 µg/mL (≈ 88.7 µM). The MIC [13] was < 0.001 µg/mL, the MIC [14] was > 100 µg/mL and the MIC [15] was > 100 µg/mL. For the same compound, the MIC [16] was < 0.001 µg/mL, the MIC [17] was 10 µg/mL (≈ 17.7 µM) and the MIC ([18]; IFM No. 2006, glucose (0.5%) agar, 37° C., 24 hours, read-out: MIC) was 0.1 µg/mL (≈ 0.177 µM). For the same compound, the MIC [19] was 50 µg/mL (≈ 88.7 µM), the MIC [20] was 1 µg/mL (≈ 1.77 µM) and the MIC [21] was 50 µg/mL (≈ 88.7 µM). It also gave an MIC [22] of 50 µg/mL (≈ 88.7 µM), an MIC [23] of 50 µg/mL (≈ 88.7 µM) and an MIC [24] of 1 µg/mL (≈ 1.77 µM). The MIC [25] was > 100 µg/mL, the MIC [26] was > 100 µg/mL and the MIC [27] was > 100 µg/mL. For the same compound, the MIC [28] was > 100 µg/mL, the MIC [29] was > 100 µg/mL and the MIC [30] was > 100 µg/mL. For the same compound, the MIC [31] was > 100 µg/mL, the IC50 [32] was 0.0016 µg/mL (≈ 0.00284 µM) and the “mice survived for 20 days or more” value ([33]; 5 micrograms/mouse/day) was 60-70%. The mice survived [33] was “all mice survived”, the “survival effect compared with critical level of effectiveness prescribed by the research institute” value [34] was “exceed the critical level of effectiveness” and the “survival effect [T/C×100]” value [34] was 130%.
